Earlier results on 79 substances are cited in patent US20250231185A1, “Coronavirus T Cell Epitopes, Megapools and Uses Thereof” (La Jolla Institute for Immunology, priority 2021, published 2025).

The test system of one data set is CD8+ T cells. As to conditions: CD8R (D) megapool epitopes; dominant = recognized by 3 or more donors/different studies; cited from earlier work.
On to 1666 (SLVKPSFYV) [compound 1666], for which the Dominant entry is reported as “Yes (more dominant epitopes are defined by being recognized by 3 or more donors/different studies)”.
Turning to 1667 (YVYSRVKNL) [compound 1667], the Dominant entry is “Yes (more dominant epitopes are defined by being recognized by 3 or more donors/different studies)”.
As to 1668 (GTITVEELK) [compound 1668], the Dominant entry was “Yes (more dominant epitopes are defined by being recognized by 3 or more donors/different studies)”.
As for 1669 (KLLEQWNLV) [compound 1669], the Dominant entry is recorded as “Yes (more dominant epitopes are defined by being recognized by 3 or more donors/different studies)”.
Take 1670 (FLFLTWICL) [compound 1670]: the Dominant result is reported as “Yes (more dominant epitopes are defined by being recognized by 3 or more donors/different studies)”.
Turning to 1671 (NRFLYIIKL) [compound 1671], the Dominant entry is listed as “Yes (more dominant epitopes are defined by being recognized by 3 or more donors/different studies)”.
For the substance 1672 (TLACFVLAAV) [compound 1672], the Dominant entry was “Yes (more dominant epitopes are defined by being recognized by 3 or more donors/different studies)”.
Take 1674 (RLFARTRSMW) [compound 1674]: the Dominant entry is reported as “Yes (more dominant epitopes are defined by being recognized by 3 or more donors/different studies)”.
With 1675 (SMWSFNPET) [compound 1675], the Dominant entry was “Yes (more dominant epitopes are defined by being recognized by 3 or more donors/different studies)”.
1676 (SELVIGAVIL) [compound 1676]: the Dominant entry is on record as “Yes (more dominant epitopes are defined by being recognized by 3 or more donors/different studies)”.
As to 1677 (AVILRGHLR) [compound 1677], the Dominant entry was “Yes (more dominant epitopes are defined by being recognized by 3 or more donors/different studies)”.
On to 1678 (ATSRTLSYY) [compound 1678], for which the Dominant entry was “Yes (more dominant epitopes are defined by being recognized by 3 or more donors/different studies)”.
Turning to 1679 (ATSRTLSYYK) [compound 1679], the Dominant result is on record as “Yes (more dominant epitopes are defined by being recognized by 3 or more donors/different studies)”.
For 1680 (RYRIGNYKL) [compound 1680], the Dominant entry is “Yes (more dominant epitopes are defined by being recognized by 3 or more donors/different studies)”.
Regarding 1682 (NTASWFTAL) [compound 1682], the Dominant result is listed as “Yes (more dominant epitopes are defined by being recognized by 3 or more donors/different studies)”.
Take 1683 (KFPRGQGVPI) [compound 1683]: the Dominant entry was “Yes (more dominant epitopes are defined by being recognized by 3 or more donors/different studies)”.
As for 1684 (FPRGQGVPI) [compound 1684], the Dominant result is on record as “Yes (more dominant epitopes are defined by being recognized by 3 or more donors/different studies)”.
As to 1685 (YYRRATRRIR) [compound 1685], the Dominant entry is “Yes (more dominant epitopes are defined by being recognized by 3 or more donors/different studies)”.
For the substance 1686 (RIRGGDGKMK) [compound 1686], the Dominant result is “Yes (more dominant epitopes are defined by being recognized by 3 or more donors/different studies)”.
As to 1687 (KMKDLSPRW) [compound 1687], the Dominant entry is listed as “Yes (more dominant epitopes are defined by being recognized by 3 or more donors/different studies)”.
Turning to 1688 (LSPRWYFYYL) [compound 1688], the Dominant entry is given as “Yes (more dominant epitopes are defined by being recognized by 3 or more donors/different studies)”.
Turning to 1689 (SPRWYFYYL) [compound 1689], the Dominant result is “Yes (more dominant epitopes are defined by being recognized by 3 or more donors/different studies)”.
Turning to 1690 (GTGPEAGLPY) [compound 1690], the Dominant entry is reported as “Yes (more dominant epitopes are defined by being recognized by 3 or more donors/different studies)”.
1691 (ATEGALNTPK) [compound 1691]: the Dominant result is “Yes (more dominant epitopes are defined by being recognized by 3 or more donors/different studies)”.
Regarding 1692 (NPANNAAIVL) [compound 1692], the Dominant entry is “Yes (more dominant epitopes are defined by being recognized by 3 or more donors/different studies)”.
On to 1693 (VLQLPQGTTL) [compound 1693], for which the Dominant entry is “Yes (more dominant epitopes are defined by being recognized by 3 or more donors/different studies)”.
With 1694 (LALLLLDRL) [compound 1694], the Dominant result is listed as “Yes (more dominant epitopes are defined by being recognized by 3 or more donors/different studies)”.
As to 1695 (LLLLDRLNQL) [compound 1695], the Dominant result was “Yes (more dominant epitopes are defined by being recognized by 3 or more donors/different studies)”.
For the substance 1696 (LLLDRLNQL) [compound 1696], the Dominant entry is listed as “Yes (more dominant epitopes are defined by being recognized by 3 or more donors/different studies)”.
For the substance 1697 (QQQQGQTVTK) [compound 1697], the Dominant result was “Yes (more dominant epitopes are defined by being recognized by 3 or more donors/different studies)”.
As to 1698 (KPRQKRTAT) [compound 1698], the Dominant result is “Yes (more dominant epitopes are defined by being recognized by 3 or more donors/different studies)”.
As for 1701 (AQFAPSASAF) [compound 1701], the Dominant entry was “Yes (more dominant epitopes are defined by being recognized by 3 or more donors/different studies)”.
For 1702 (ASAFFGMSR) [compound 1702], the Dominant entry is on record as “Yes (more dominant epitopes are defined by being recognized by 3 or more donors/different studies)”.
With 1703 (GMSRIGMEV) [compound 1703], the Dominant result is “Yes (more dominant epitopes are defined by being recognized by 3 or more donors/different studies)”.
In the case of 1704 (MEVTPSGTW) [compound 1704], the Dominant result is reported as “Yes (more dominant epitopes are defined by being recognized by 3 or more donors/different studies)”.
Regarding 1705 (MEVTPSGTWL) [compound 1705], the Dominant entry is given as “Yes (more dominant epitopes are defined by being recognized by 3 or more donors/different studies)”.
For the substance 1706 (ILLNKHIDA) [compound 1706], the Dominant entry is “Yes (more dominant epitopes are defined by being recognized by 3 or more donors/different studies)”.

The data set is the same for the next values; noted with them: SARS-CoV-2 Ag S; T cell type recognizing the epitope; cited from earlier work.
Turning to 1399 (IANQFNSAI) [compound 1399], the Restriction entry is “CD8”.
Turning to 1400 (LSSTASALGK) [compound 1400], the Restriction result is reported as “CD8”.
Take 1402 (ALNTLVKQL) [compound 1402]: the Restriction entry is given as “CD8”.
Take 1403 (SVLNDILSR) [compound 1403]: the Restriction result is given as “CD8”.
As to 1404 (SVLNDILSRL) [compound 1404], the Restriction result was “CD8”.
With 1406 (RLDKVEAEVQI) [compound 1406], the Restriction result is recorded as “CD8”.
As to 1409 (AEVQIDRL) [compound 1409], the Restriction result is recorded as “CD8”.
Take 1410 (AEVQIDRLI) [compound 1410]: the Restriction entry was “CD8”.
For 1412 (ITGRLQSLQTY) [compound 1412], the Restriction result is listed as “CD8”.
For 1413 (LITGRLQSL) [compound 1413], the Restriction entry is “CD8”.
1414 (RLQSLQTY) [compound 1414]: the Restriction result was “CD8”.
Regarding 1417 (AEIRASANL) [compound 1417], the Restriction entry is on record as “CD8”.
Take 1418 (RASANLAATK) [compound 1418]: the Restriction result is listed as “CD8”.
Consider 1419 (SKRVDFCGKGY) [compound 1419], for which the Restriction result is “CD8”.
On to 1420 (RVDFCGKGY) [compound 1420], for which the Restriction entry was “CD8”.
As for 1424 (FPQSAPHGV) [compound 1424], the Restriction result is recorded as “CD8”.
Consider 1426 (QSAPHGVVF) [compound 1426], for which the Restriction result is reported as “CD8”.
Consider 1430 (GVVFLHVTY) [compound 1430], for which the Restriction result is “CD8”.
As for 1432 (HVTYVPAQEK) [compound 1432], the Restriction entry is “CD8”.
On to 1434 (VTYVPAQEK) [compound 1434], for which the Restriction entry is “CD8”.
In the case of 1435 (TYVPAQEKNFT) [compound 1435], the Restriction result is on record as “CD8”.
In the case of 1436 (FPREGVFV) [compound 1436], the Restriction entry was “CD8”.
Regarding 1438 (GVFVSNGTHW) [compound 1438], the Restriction entry is “CD8”.
Regarding 1439 (VFVSNGTHW) [compound 1439], the Restriction result was “CD8”.
Consider 1440 (VFVSNGTHWF) [compound 1440], for which the Restriction result is listed as “CD8”.
Consider 1441 (FVSNGTHWF) [compound 1441], for which the Restriction result is reported as “CD8”.
Regarding 1443 (HWFVTQRNF) [compound 1443], the Restriction entry is listed as “CD8”.
Regarding 1444 (WFVTQRNFY) [compound 1444], the Restriction entry is recorded as “CD8”.
1445 (IITTDNTFV) [compound 1445]: the Restriction result is reported as “CD8”.
Turning to 1448 (DSFKEELDKY) [compound 1448], the Restriction result is “CD8”.
As to 1449 (SFKEELDKY) [compound 1449], the Restriction entry was “CD8”.
In the case of 1450 (NASVVNIQK) [compound 1450], the Restriction entry was “CD8”.
As to 1454 (NESLIDLQEL) [compound 1454], the Restriction entry is on record as “CD8”.
In the case of 1455 (SLIDLQEL) [compound 1455], the Restriction result was “CD8”.
As for 1456 (LQELGKYEQY) [compound 1456], the Restriction result is recorded as “CD8”.
For 1457 (QELGKYEQY) [compound 1457], the Restriction entry is “CD8”.
In the case of 1459 (YEQYIKWPW) [compound 1459], the Restriction result is given as “CD8”.
Consider 1460 (QYIKWPWYIW) [compound 1460], for which the Restriction result is given as “CD8”.
Regarding 1464 (CMTSCCSCLK) [compound 1464], the Restriction entry was “CD8”.
As for 1465 (FDEDDSEPVL) [compound 1465], the Restriction entry is given as “CD8”.
1467 (EPVLKGVKL) [compound 1467]: the Restriction result is recorded as “CD8”.
Turning to 1468 (VLKGVKLHY) [compound 1468], the Restriction result is listed as “CD8”.
